Measurements: ChEMBL document CHEMBL1201862, “PubChem BioAssay data set” (2004)
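Cells were grown in 96-well plates and exposed to each compound for 48 hours at five concentrations; endpoints were interpolated linearly between bracketing concentrations, or set to the highest concentration if not reached. GI50 marks 50% less growth.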 Calls of active or inactive are those of the source. Rule as the data show it: active = GI50 up to about 1.1 µM and inactive = higher.

Tests used:
Experiment in all cases: NCI anticancer screen, dose series, 48 h
HCT-15 = system: HCT-15
SN12C = system: SN12C
NCI-H522 = system: NCI-H522
A498 = system: A498
OVCAR-8 = system: OVCAR-8
HCT-116 = system: HCT-116
RXF 393 = system: RXF 393
SNB-19 = system: SNB-19
TK-10 = system: TK-10
EKVX = system: EKVX
SNB-75 = system: SNB-75
SF-295 = system: SF-295
SF-268 = system: SF-268
T47D = system: T47D
OVCAR-3 = system: OVCAR-3
SR = system: SR
UACC-257 = system: UACC-257
DU-145 = system: DU-145
SK-OV-3 = system: SK-OV-3
HOP-92 = system: HOP-92

Structure (SMILES)	GI50 (HCT-15) [µM]	GI50 (SN12C)	GI50 (NCI-H522)	GI50 (A498)	GI50 (OVCAR-8)	GI50 (HCT-116)	GI50 (RXF 393)	GI50 (SNB-19)	GI50 (TK-10)	GI50 (EKVX)	GI50 (SNB-75)	GI50 (SF-295)	GI50 (SF-268)	GI50 (T47D)	GI50 (OVCAR-3)	GI50 (SR)	GI50 (UACC-257)	GI50 (DU-145)	GI50 (SK-OV-3)	GI50 (HOP-92)
N#CC1=C(N)N(c2ccccc2)C(c2ccccc2)C1(C#N)C#N (centres undefined)	20.6	18.8 µM (inactive)	16.3 µM (inactive)	17.4 µM (inactive)	16.2 µM (inactive)	14.5 µM (inactive)	15 µM (inactive)	18.4 µM (inactive)	16.5 µM (inactive)	19.7 µM (inactive)	15.3 µM (inactive)	18.4 µM (inactive)	22.6 µM (inactive)	10.4 µM (inactive)	17.8 µM (inactive)	17.1 µM (inactive)	19.1 µM (inactive)	17.8 µM (inactive)	24.9 µM (inactive)	–
CC(=O)O[C@@]12CO[C@@H]1C[C@@H](O)[C@@]1(C)C(=O)[C@H](O)C3=C(C)[C@@H](OC(=O)[C@H](O)[C@@H](NC(=O)c4ccccc4)c4ccccc4)C[C@@](O)([C@@H](OC(=O)c4ccccc4)C12)C3(C)C (some centres undefined)	3.03	0.0184 µM (active)	< 0.0122 µM (active)	0.213 µM (active)	0.0803 µM (active)	< 0.01 µM (active)	0.222 µM (active)	0.185 µM (active)	0.705 µM (active)	4.81 µM (inactive)	< 0.01 µM (active)	0.268 µM (active)	0.0594 µM (active)	0.0272 µM (active)	< 0.0162 µM (active)	0.0438 µM (active)	0.0217 µM (active)	0.0301 µM (active)	0.026 µM (active)	–
O=[N+]([O-])c1cc([N+](=O)[O-])c(Nn2c3ccccc3c3ccccc32)c([N+](=O)[O-])c1	2.58	1.79 µM (inactive)	0.403 µM (active)	–	2.55 µM (inactive)	–	–	3.04 µM (inactive)	2.2 µM (inactive)	1.64 µM (inactive)	–	1.25 µM (inactive)	2.94 µM (inactive)	0.641 µM (active)	–	0.94 µM (active)	–	4.15 µM (inactive)	–	0.346 µM (active)
Cc1ccc(Cl)c2[nH]c(-c3ccccc3)cc(=O)c12	39.2	46.5 µM (inactive)	57.1 µM (inactive)	25.6 µM (inactive)	50.9 µM (inactive)	29.2 µM (inactive)	44 µM (inactive)	–	47.2 µM (inactive)	6.41 µM (inactive)	36.1 µM (inactive)	63.5 µM (inactive)	14.8 µM (inactive)	11.5 µM (inactive)	36.1 µM (inactive)	–	40.9 µM (inactive)	43.7 µM (inactive)	> 100 µM (inactive)	–
CCCNCC(O)CNc1ccc(NCC(O)CNCCC)c2c1C(=O)c1ccccc1C2=O (centres undefined)	43.9	1.78 µM (inactive)	1.21 µM (inactive)	11.7 µM (inactive)	2.26 µM (inactive)	2.56 µM (inactive)	–	1.95 µM (inactive)	10.6 µM (inactive)	7.73 µM (inactive)	2.29 µM (inactive)	–	2.03 µM (inactive)	4.02 µM (inactive)	4.37 µM (inactive)	2.42 µM (inactive)	7.85 µM (inactive)	6.22 µM (inactive)	2.04 µM (inactive)	2.07 µM (inactive)
Cc1nc2ccc(C(F)(F)F)cc2nc1NCc1ccc(Cl)c(Cl)c1	12.7	17.2 µM (inactive)	14.8 µM (inactive)	–	17.2 µM (inactive)	16.4 µM (inactive)	12.5 µM (inactive)	18.4 µM (inactive)	< 0.01 µM (active)	14.1 µM (inactive)	12.9 µM (inactive)	17.3 µM (inactive)	16 µM (inactive)	0.735 µM (active)	13.3 µM (inactive)	14.8 µM (inactive)	15.9 µM (inactive)	17.9 µM (inactive)	–	–
CCCCC(CCCC)=NNC(=S)SC	34.2	34.2 µM (inactive)	17.1 µM (inactive)	39.4 µM (inactive)	19.2 µM (inactive)	17.4 µM (inactive)	65.3 µM (inactive)	24.3 µM (inactive)	17 µM (inactive)	87.3 µM (inactive)	27.5 µM (inactive)	–	34.3 µM (inactive)	20 µM (inactive)	–	–	24.9 µM (inactive)	30.3 µM (inactive)	> 100 µM (inactive)	38.6 µM (inactive)
Cc1cc(=O)oc2c(CNC(C(=O)O)C(C)O)c(O)ccc12 (centres undefined)	> 100	> 100 µM (inactive)	> 100 µM (inactive)	–	> 100 µM (inactive)	> 100 µM (inactive)	> 100 µM (inactive)	> 100 µM (inactive)	> 100 µM (inactive)	> 100 µM (inactive)	8.89 µM (inactive)	> 100 µM (inactive)	> 100 µM (inactive)	> 100 µM (inactive)	> 100 µM (inactive)	> 100 µM (inactive)	> 100 µM (inactive)	> 100 µM (inactive)	> 100 µM (inactive)	> 100 µM (inactive)
